Molecules are shown by their SMILES.

The target of one test is TNF-α converting enzyme (TACE) (Homo sapiens, UniProt P78536). In words: TACE inhibition (fluorescent peptidyl substrate). The class given is biochemical. The settings on record: IC 50 nM (In Vitro Inhibition of TACE), Table 15.
Sequence of TNF-α converting enzyme (TACE) (P78536 215-824, species assumed): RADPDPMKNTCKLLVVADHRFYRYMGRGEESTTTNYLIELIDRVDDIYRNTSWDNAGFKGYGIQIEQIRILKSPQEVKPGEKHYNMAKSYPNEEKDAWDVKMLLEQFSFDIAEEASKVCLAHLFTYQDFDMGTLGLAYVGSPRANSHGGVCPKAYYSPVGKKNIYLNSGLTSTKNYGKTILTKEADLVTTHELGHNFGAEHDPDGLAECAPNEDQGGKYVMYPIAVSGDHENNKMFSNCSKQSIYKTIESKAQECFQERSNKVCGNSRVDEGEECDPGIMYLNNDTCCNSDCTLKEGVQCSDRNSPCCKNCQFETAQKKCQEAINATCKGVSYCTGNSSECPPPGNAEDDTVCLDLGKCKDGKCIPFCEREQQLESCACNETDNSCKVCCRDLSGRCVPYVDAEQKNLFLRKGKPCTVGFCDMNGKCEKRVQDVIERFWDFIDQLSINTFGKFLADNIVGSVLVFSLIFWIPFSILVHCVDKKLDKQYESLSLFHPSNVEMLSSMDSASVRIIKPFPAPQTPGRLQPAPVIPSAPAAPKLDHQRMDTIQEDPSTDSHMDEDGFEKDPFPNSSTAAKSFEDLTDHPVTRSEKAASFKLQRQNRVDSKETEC
Protocol: Using 96-well black microtiter plates, each well receives a solution composed of 10 μL TACE (final concentration 1 μg/mL), 70 μL Tris buffer, pH 7.4 containing 10% glycerol (final concentration 10 mM), and 10 μL of test compound solution in DMSO (final concentration 1 μM, DMSO concentration <1%) and incubated for 10 minutes at room temperature.
The reaction is read (excitation 340 nm, emission 420 nm) for 10 min. and the increase in fluorescence over time is plotted as a linear line. The slope of the line is calculated and represents the reaction rate.
The linearity of the reaction rate is confirmed (r^2>0.85). The mean (x±sem) of the control rate is calculated and compared for statistical significance (p<0.05) with drug-treated rates using Dunnett's multiple comparison test.
On to `CC#CCOc1ccc(S(=O)(=O)N[C@H](Cc2cccc3ccccc23)C(=O)NO)cc1` [Example 310, (2R)-2-({[4-(But-2-ynyloxy)phenyl]sulfonyl}amino)-N-hydroxy-3-(1-naphthyl)propanamide], for which the IC50 is 27.9 nM.

`CC#CCOc1ccc(S(=O)(=O)N[C@H](Cc2ccc3ccccc3c2)C(=O)NO)cc1` [Example 311, (2R)-2-({[4-(But-2-ynyloxy)phenyl]sulfonyl}amino)-N-hydroxy-3-(2-naphthyl)propanamide]: the IC50 is 15.7 nM.

As for `CC#CCOc1ccc(S(=O)(=O)N[C@H](CCCC)C(=O)NO)cc1` [Example 312, (2R)-2-({[4-(But-2-ynyloxy)phenyl]sulfonyl}amino)-N-hydroxyhexanamide], the IC50 was determined as 4.7 nM.

Compound `CC#CCOc1ccc(S(=O)(=O)N[C@H](CCC)C(=O)NO)cc1` [Example 313, (2R)-2-({[4-(But-2-ynyloxy)phenyl]sulfonyl}amino)-N-hydroxypentanamide] yielded an IC50 of 6.3 nM.

As to `CC#CCOc1ccc(S(=O)(=O)N[C@H](CCCN)C(=O)NO)cc1` [Example 314, (2R)-5-Amino-2-({[4-(but-2-ynyloxy)phenyl]sulfonyl}amino)-N-hydroxypentanamide], the IC50 was found to be 25 nM.

As to `CC#CCOc1ccc(S(=O)(=O)N[C@H](Cc2ccc(F)cc2)C(=O)NO)cc1` [Example 316, (2R)-2-({[4-(But-2-ynyloxy)phenyl]sulfonyl}amino)-3-(4-fluorophenyl)-N-hydroxypropanamide], the IC50 was found to be 4 nM.

Take `CC#CCOc1ccc(S(=O)(=O)N[C@H](Cc2ccc([N+](=O)[O-])cc2)C(=O)NO)cc1` [Example 317, (2R)-2-({[4-(But-2-ynyloxy)phenyl]sulfonyl}amino)-N-hydroxy-3-(4-nitrophenyl)propanamide]: the IC50 came to 6.5 nM.

In turn, `CC#CCOc1ccc(S(=O)(=O)N2CCCC[C@@H]2C(=O)NO)cc1` [Example 318, (2R)-1-{[4-(But-2-ynyloxy)phenyl]sulfonyl}-N-hydroxypiperidine-2-carboxamide] gave an IC50 of 11.9 nM.

Consider `CC#CCOc1ccc(S(=O)(=O)N[C@H](CO)C(=O)NO)cc1` [Example 319, (2R)-2-({[4-(But-2-ynyloxy)phenyl]sulfonyl}amino)-N,3-dihydroxypropanamide], for which the IC50 was 10.5 nM.

With `CC#CCOc1ccc(S(=O)(=O)N[C@H](COCc2ccccc2)C(=O)NO)cc1` [Example 320, (2R)-3-(Benzyloxy)-2-({[4-(but-2-ynyloxy)phenyl]sulfonyl}amino)-N-hydroxypropanamide], the IC50 was 7.4 nM.

The compound `CC#CCOc1ccc(S(=O)(=O)N[C@H](Cc2cccs2)C(=O)NO)cc1` [Example 321, (2R)-2-({[4-(But-2-ynyloxy)phenyl]sulfonyl}amino)-N-hydroxy-3-thien-2-yl-propanamide] came in with an IC50 of 4.7 nM.

As to `CC#CCOc1ccc(S(=O)(=O)N[C@@H](C(=O)NO)[C@H](C)O)cc1` [Example 322, (2R,3S)-2-({[4-(But-2-ynyloxy)phenyl]sulfonyl}amino)-N,3-dihydroxybutanamide], the IC50 amounted to 11.8 nM.

Turning to `CC#CCOc1ccc(S(=O)(=O)N[C@@H](C(=O)NO)[C@H](C)OCc2ccccc2)cc1` [Example 323, (2R,3S)-3-(Benzyloxy)-2-({[4-(but-2-ynyloxy)phenyl]sulfonyl}amino)-N-hydroxybutanamide], the IC50 was 17.6 nM.

In turn, `CC#CCOc1ccc(S(=O)(=O)N2CSC[C@@H]2C(=O)NO)cc1` [Example 324, (4S)-3-{[4-(But-2-ynyloxy)phenyl]sulfonyl}-N-hydroxy-1,3-thiazolidine-4-carboxamide] displayed an IC50 of 14.7 nM.

On to `CC#CCOc1ccc(S(=O)(=O)N2Cc3ccccc3C[C@@H]2C(=O)NO)cc1` [Example 325, (3R)-2-{[4-(But-2-ynyloxy)phenyl]sulfonyl}-N-hydroxy-1,2,3,4-tetrahydroisoquinoline-3-carboxamide], for which the IC50 is 6.9 nM.

With `CC#CCOc1ccc(S(=O)(=O)N[C@H](Cc2ccc(OCc3ccccc3)cc2)C(=O)NO)cc1` [Example 326, (2R)-3-[4-(Benzyloxy)phenyl]-2-({[4-(but-2-ynyloxy)phenyl]sulfonyl}amino)-N-hydroxypropanamide], the IC50 was found to be 58.6 nM.

`CC#CCOc1ccc(S(=O)(=O)N[C@@H](C(=O)NO)c2ccccc2)cc1` [Example 327, (2R)-2-({[4-(But-2-ynyloxy)phenyl]sulfonyl}amino)-N-hydroxy-2-phenylethanamide] yielded an IC50 of 5.5 nM.

`CC#CCOc1ccc(S(=O)(=O)N[C@H](CCCNC(C)=O)C(=O)NO)cc1` [Example 328, (2R)-5-(Acetylamino)-2-({[4-(but-2-ynyloxy)phenyl]sulfonyl}amino)-N-hydroxypentanamide] registered an IC50 of 6.26 nM.

The compound `CC#CCOc1ccc(S(=O)(=O)N[C@H](CCCNC(=O)c2ccc3[nH]cnc3c2)C(=O)NO)cc1` [Example 329, N-[(4R)-4-({[4-(But-2-ynyloxy)phenyl]sulfonyl}amino)-5-(hydroxyamino)-5-oxopentyl]-1H-benzimidazole-5-carboxamide] displayed an IC50 of 6.88 nM.

The compound `CC#CCOc1ccc(S(=O)(=O)N[C@H](CCCNC(=O)c2ccccc2)C(=O)NO)cc1` [Example 330, N-[(4R)-4-({[4-(But-2-ynyloxy)phenyl]sulfonyl}amino)-5-(hydroxyamino)-5-oxopentyl]benzamide] displayed an IC50 of 3.58 nM.

Compound `CC#CCOc1ccc(S(=O)(=O)N[C@H](CCCNC(=O)c2ccc(Br)cc2)C(=O)NO)cc1` [Example 331, 4-Bromo-N-[(4R)-4-({[4-(but-2-ynyloxy)phenyl]sulfonyl}amino)-5-(hydroxyamino)-5-oxopentyl]benzamide] gave an IC50 of 5.32 nM.

As for `CC#CCOc1ccc(S(=O)(=O)N[C@H](CCCNC(=O)CCC)C(=O)NO)cc1` [Example 332, (2R)-2-({[4-(But-2-ynyloxy)phenyl]sulfonyl)amino)-5-(butyrylamino)-N-hydroxypentanamide], the IC50 was determined as 5.13 nM.

`CC#CCOc1ccc(S(=O)(=O)N[C@H](CCCNC(=O)c2sccc2Cl)C(=O)NO)cc1` [Example 333, N-[(4R)-4-({[4-(But-2-ynyloxy)phenyl]sulfonyl}amino)-5-(hydroxyamino)-5-oxopentyl]-3-chlorothiophene-2-carboxamide] had an IC50 of 4.21 nM.

On to `CC#CCOc1ccc(S(=O)(=O)N[C@H](CCCNC(=O)c2ccc(Cl)cc2)C(=O)NO)cc1` [Example 334, N-[(4R)-4-({[4-(But-2-ynyloxy)phenyl]sulfonyl}amino)-5-(hydroxyamino)-5-oxopentyl]-4-chlorobenzamide], for which the IC50 worked out at 4.7 nM.

`CC#CCOc1ccc(S(=O)(=O)N[C@H](CCCNC(=O)C2CCCCC2)C(=O)NO)cc1` [Example 335, N-[(4R)-4-({[4-(But-2-ynyloxy)phenyl]sulfonyl}amino)-5-(hydroxyamino)-5-oxopentyl]cyclohexanecarboxamide] had an IC50 of 6.5 nM.

As for `CC#CCOc1ccc(S(=O)(=O)N[C@H](CCCNC(=O)c2c(C)noc2C)C(=O)NO)cc1` [Example 338, N-[(4R)-4-({[4-(But-2-ynyloxy)phenyl]sulfonyl)amino)-5-(hydroxyamino)-5-oxopentyl]-3,5-dimethylisoxazole-4-carboxamide], the IC50 amounted to 3.73 nM.

Take `CC#CCOc1ccc(S(=O)(=O)N[C@H](CCCNC(=O)CCc2ccccc2)C(=O)NO)cc1` [Example 339, (2R)-2-({[4-(But-2-ynyloxy)phenyl]sulfonyl}amino)-N-hydroxy-5-[(3-phenylpropanoyl)amino]pentanamide]: the IC50 is 4.6 nM.

`CC#CCOc1ccc(S(=O)(=O)N[C@H](CCCNC(=O)c2ccncc2)C(=O)NO)cc1` [Example 340, N-[(4R)-4-({[4-(But-2-ynyloxy)phenyl]sulfonyl}amino)-5-(hydroxyamino)-5-oxopentyl]isonicotinamide]: the IC50 turned out to be 6.67 nM.

Turning to `CC#CCOc1ccc(S(=O)(=O)N[C@H](CCCNC(=O)c2cccnc2)C(=O)NO)cc1` [Example 341, N-[(4R)-4-({[4-(But-2-ynyloxy)phenyl]sulfonyl}amino)-5-(hydroxyamino)-5-oxopentyl]nicotinamide], the IC50 is 4.88 nM.

Regarding `CC#CCOc1ccc(S(=O)(=O)N[C@H](CCCNC(=O)c2ccccc2OC)C(=O)NO)cc1` [Example 342, N-[(4R)-4-({[4-(But-2-ynyloxy)phenyl]sulfonyl}amino)-5-(hydroxyamino)-5-oxopentyl]-2-methoxybenzamide], the IC50 worked out at 4.54 nM.

For `CC#CCOc1ccc(S(=O)(=O)N[C@H](CCCNC(=O)c2ccc(OC)cc2)C(=O)NO)cc1` [Example 343, N-[(4R)-4-({[4-(But-2-ynyloxy)phenyl]sulfonyl}amino)-5-(hydroxyamino)-5-oxopentyl]-4-methoxybenzamide], the IC50 was 3.54 nM.

Take `CC#CCOc1ccc(S(=O)(=O)N[C@H](CCCNC(=O)Cc2ccc([N+](=O)[O-])cc2)C(=O)NO)cc1` [Example 344, (2R)-2-({[4-(But-2-ynyloxy)phenyl]sulfonyl}amino)-N-hydroxy-5-{[2-(4-nitrophenyl)acetyl]amino}pentanamide]: the IC50 stood at 5.24 nM.

Compound `CC#CCOc1ccc(S(=O)(=O)N[C@H](CCCNC(=O)Cc2ccccc2)C(=O)NO)cc1` [Example 345, (2R)-2-({[4-(But-2-ynyloxy)phenyl]sulfonyl}amino)-N-hydroxy-5-[(2-phenylacetyl)amino]pentanamide] returned an IC50 of 4.43 nM.

In the case of `CC#CCOc1ccc(S(=O)(=O)N[C@H](CCCNC(=O)c2cnc3ccccc3c2)C(=O)NO)cc1` [Example 346, N-[(4R)-4-({[4-(But-2-ynyloxy)phenyl]sulfonyl}amino)-5-(hydroxyamino)-5-oxopentyl]quinoline-3-carboxamide], the IC50 worked out at 4.63 nM.

Staying with this test, now noted: read-out: IC 50 nM (In Vitro Inhibition of TACE); Table 15.
In the case of `CC#CCOc1ccc(S(=O)(=O)N[C@H](Cc2ccc(F)c(F)c2)C(=O)NO)cc1` [Example 315, (2R)-2-({[4-(But-2-ynyloxy)phenyl]sulfonyl}amino)-3-(3,4-digluorophenyl)-N-hydroxypropanamide], the IC50 turned out to be 5.7 nM.

As for `CC#CCOc1ccc(S(=O)(=O)N[C@H](CCCNC(=O)c2cc(C)oc2C)C(=O)NO)cc1` [Example 337, N-[(4R)-4-({[4-(But-2-ynyloxy)phenyl]sulfonyl}amino)-5-(hydroxyamino)-5-oxopentyl]-2,5-dimethyl-3-furamide], the IC50 stood at 4.2 nM.
